This note sets out measurements from US20030225152A1, “3-(Arylamino)methylene-1, 3-dihydro-2h-indol-2-ones as kinase inhibitors” (priority 2001, published 2003).

For orientation: IC50 means the concentration at which inhibition is half-maximal. Usually inhibition stands for the change of the read-out against control, counted positive when it falls.

One assay relates to VEGF induced increases in intracellular calcium levels in HUVEC (human umbilical vein endothelial cells). The experiment in a line: VEGF Stimulated Ca++ Signal in vitro (FLIPR). It is filed as cell-based. The following applies: 10 μM, VEGF 5 ng/mL. As to the method: VEGF Stimulated Ca^++ Signal in vitro
Automated FLIPR (Fluorometric Imaging Plate Reader) technology was used to screen for inhibitors of VEGF induced increases in intracellular calcium levels in fluorescent dye loaded endothelial cells. HUVEC (human umbilical vein endothelial cells) (Clonetics) were seeded in 96-well fibronectin coated black-walled plates overnight at 37° C./5%CO2. Cells were loaded with calcium indicator Fluo-4 for 45 minutes at 37° C. Cells were washed 4 times (Original Cell Wash, Labsystems) to remove extracellular dye. Test compounds were reconstituted in 100% DMSO and added to the cells to give a final DMSO concentration of 0.1%. For screening, cells were pre-incubated with test agents for 30 minutes, at a single concentration (10 μM) or at concentrations ranging from 0.01 to 10.0 μM followed by VEGF stimulation (5 ng/mL). Changes in fluorescence at 516 nm were measured simultaneously in all 96 wells using a cooled CCD camera. Data were generated by determining max-min fluorescence levels for unstimulated, stimulated, and drug treated samples. IC50 values for test compounds were calculated from % inhibition of VEGF stimulated responses in the absence of inhibitor.
For `CC(=O)NS(=O)(=O)c1ccc(NC=C2C(=O)Nc3ccccc32)cc1` [Example 39, 2-Oxo-1,2-dihydro-indol-3-ylidenemethyl-sulfaacetamide], the “VEGF Stimulated Ca^++ signal assay % inhibition @ 10 μM” value is −14.50%.
On to `O=C1Nc2ccc(F)cc2C1=CNc1ccc(N2CCCCC2)cc1` [Example 221], for which the “VEGF Stimulated Ca^++ signal assay % inhibition @ 10 μM” value is reported as 97.59%.
Consider `COc1ccc(NC=C2C(=O)Nc3ccccc32)cc1OC` [Example 42, 3-[(3,4-Dimethoxyamino)-methylene]-1,3-dihydro-indol-2-one], for which the “VEGF Stimulated Ca^++ signal assay % inhibition @ 10 μM” value came to 59.50%.

The assay is the same for the next values; noted with them: 0.01 to 10.0 μM, VEGF 5 ng/mL.
`O=C1Nc2ccc(F)cc2C1=CNc1ccc(N2CCCCC2)cc1` [Example 221]: the IC50 worked out at 930 nM.

The same assay, now with this note: Homo sapiens, 10 μM, VEGF 5 ng/mL.
Regarding `Cc1cc(C)cc(NC=C2C(=O)Nc3ccc(Cl)cc32)c1` [Example 78, 3-[(3,5-Dimethylphenylamino)-methylene]-5-chloro-1,3-dihydro-indol-2-one], the inhibition at 10 µM came out at 8%.
On the same count and under the same terms, next, `CCOC(=O)Oc1cc(NC=C2C(=O)Nc3ccccc32)c(F)cc1C` [Example 26, Carbonic acid ethyl ester 4-fluoro-2-methyl-5-[(2-oxo-1,2-dihydro-indol-3-ylidenemethyl)-amino]-phenyl ester]: 37.5%; `Cc1ccc(NC=C2C(=O)Nc3cccc(C)c32)cc1C` [Example 95, 3-[(3,4-Dimethyl-phenylamino)-methylene]-4-methyl-1,3-dihydro-indol-2-one]: 14%; `Cc1c(F)cccc1NC=C1C(=O)Nc2ccccc21` [Example 11, 3-[(3-Fluoro-2-methyl-phenylamino)-methylene]-1,3-dihydro-indol-2-one]: -14%.
The same measure, in the same setting: the value for `Cc1ccc(NC=C2C(=O)Nc3ccccc32)cc1` [Example 18, 3-(p-Tolylamino-methylene)-1,3-dihydro-indol-2-one] was 35.5%.
For the compound `CCN(CC)Cc1cc(NC=C2C(=O)Nc3cccc(C)c32)ccc1O` [Example 161, 3-[(3-Diethylaminomethyl-4-hydroxy-phenylamino)-methylene]-4-methyl-1,3-dihydro-indol-2-one], the inhibition at 10 µM was 95.2%.
Same read-out and setting: the value for `O=C1Nc2ccccc2C1=CNc1ccc(OC(F)(F)F)cc1` [Example 51, 3-[(4-Trifluoromethoxy-phenylamino)-methylene]-1,3-dihydro-indol-2-one] was 45.5%.
Same read-out and setting: the value for `O=C1Nc2ccccc2C1=CNc1ccc2c(c1)CCC2` [Example 23, 3-(Indan-5-ylaminomethylene)-1,3-dihydro-indol-2-one] was 42%.
Still for that read-out and setting: the value for `N#Cc1ccc(NC=C2C(=O)Nc3ccc(Cl)cc32)cc1` [Example 152, 4-[(5-Chloro-2-oxo-1,2-dihydro-indol-3-ylidenemethyl)-amino]-benzonitrile] was 18.7%; that for `O=C1Nc2ccccc2C1CNc1cccc(Br)c1` (stereo not drawn) [Example 4, 3-[(3-Bromo-phenylamino)-methyl]-1,3-dihydro-indol-2-one] was 16.5%; that for `O=C1Nc2ccccc2C1CNc1ccc(Br)cc1` (stereo not drawn) [Example 3, 3-[(4-Bromo-phenylamino)-methyl]-1,3-dihydro-indol-2-one] was 3.5%.
`O=C1Nc2ccc(Cl)cc2C1=CNc1ccc(O)c(C(=O)O)c1` [Example 108, 5-(5-Chloro-2-oxo-1,2-dihydro-indol-3-ylidenemethylamino)-2-hydroxybenzoic acid]: the inhibition at 10 µM was -14.5%.

The same assay, now with this note: Homo sapiens, 0.01 to 10.0 μM, VEGF 5 ng/mL.
Consider `Cc1cccc2c1C(=CNc1ccc(CCCCN3CCCCC3)cc1)C(=O)N2` [Example 320, 4-Methyl-3-{[4-(4-piperidin-1-yl-butyl)-phenylamino]-methylene}-1,3-dihydro-indol-2-one], for which the IC50 stood at 330 nM.
For the compound `Cc1cccc2c1C(=CNc1ccc(NCCCN3CCN(C)CC3)cc1)C(=O)N2` [Example 303, 4-Methyl-3-({4-[3-(4-methyl-piperazin-1-yl)-propylamino]-phenylamino}-methylene)-1,3-dihydro-indol-2-one], the IC50 was 520 nM.
